# Data from US12378211B2, “Carbonic anhydrase inhibitors and antibiotics against multidrug resistant bacteria” (Purdue Research Foundation, priority 2018, dated 2025).
# Like-named read-outs stand apart in the source and are kept apart here.
# Assays:
# [1] = system: Mutant-4 of Enterococcus fecalis NR 31975; test: microbe, parasite or virus in culture; type: cell-based; details: Enterococcus
# [2] = system: Mutant-3 of Enterococcus fecalis NR 31975; test: microbe, parasite or virus in culture; type: cell-based; details: Enterococcus
# [3] = system: Mutant-7 of Enterococcus fecalis NR 31975; test: microbe, parasite or virus in culture; type: cell-based; details: Enterococcus
# [4] = system: Mutant-13 of Enterococcus fecalis NR 31975; test: microbe, parasite or virus in culture; type: cell-based; details: Enterococcus
# [5] = system: Mutant-6 of Enterococcus fecalis NR 31975; test: microbe, parasite or virus in culture; type: cell-based; details: Enterococcus
# [6] = system: Mutant-5 of Enterococcus fecalis NR 31975; test: microbe, parasite or virus in culture; type: cell-based; details: Enterococcus
# [7] = system: Mutant-12 of Enterococcus fecalis NR 31975; test: microbe, parasite or virus in culture; type: cell-based; details: Enterococcus
# [8] = system: Staphylococcus epidermidis NRS 101; test: MIC against Staphylococci, broth microdilution; type: cell-based; details: Staphylococcus epidermidis, NRS101; TSB; read-out: MIC
# Method: (§1) The minimum inhibitory concentrations (MICs) of the compounds and control drugs were determined using the broth microdilution method, according to guidelines outlined by the Clinical and Laboratory Standards Institute (CLSI) 1. Staphylococci strains were grown aerobically overnight on tryptone soya agar plates at 37° C., afterwards a bacterial solution equivalent to 0.5 McFarland standard was prepared and diluted in tryptone soy broth (TSB) to achieve a bacterial concentration of about 5×10^5 CFU/mL and seeded in 96-well well plates. Compounds and control drugs were added in the first row of the 96-well plates and serially diluted along the plates. Plates were then incubated aerobically at 37° C. for 18-20 hours. MICs reported in Table 2 are the minimum concentration of the compounds/control drugs that could inhibit completely the visual growth of the bacteria.
# [9] = system: Mutant-14 of Enterococcus fecalis NR 31975; test: microbe, parasite or virus in culture; type: cell-based; details: Enterococcus
# [10] = system: Mutant-11 of Enterococcus fecalis NR 31975; test: microbe, parasite or virus in culture; type: cell-based; details: Enterococcus
# [11] = system: Mutant-2 of Enterococcus fecalis NR 31975; test: microbe, parasite or virus in culture; type: cell-based; details: Enterococcus
# [12] = system: Mutant-9 of Enterococcus fecalis NR 31975; test: microbe, parasite or virus in culture; type: cell-based; details: Enterococcus
# [13] = system: MRSA NRS 384 (MRSA USA300); test: MIC against Staphylococci, broth microdilution; type: cell-based, Staphylococcus aureus; details: Staphylococcus aureus; TSB; read-out: MIC
# Method: as §1
# [14] = system: Bifidobacterium longum subsp. Longum—44B HM 845; test: MIC against human normal gut microbiota; type: cell-based; details: Bifidobacterium longum; BHIS broth, anaerobic, 48 hours; read-out: MIC
# Method: (§2) Three different bacterial strains were used in this experiment; Bifidobacterium (anaerobic Gram positive bacteria), Bacteroides (anaerobic Gram negative bacteria) and Lactobacillus (microaerophilic Gram positive bacteria). Bifidobacterium and Bacteroides were first grown for 48 hours at 37° C., anaerobically using brain heart infusion supplemented (BHIS) agar (Brain heart infusion agar supplemented with hemin, vitamin K and L-cysteine). Lactobacillus was cultivated on MRS agar and incubated in presence of 5% CO2 for 48 hours at 37° C. Each bacterium was suspended in phosphate buffered saline (PBS) to produce a suspension with optical density that matches 0.5 McFarland standard and diluted in brain heart infusion supplemented broth (for Bifidobacterium and Bacteroides) or in MRS broth (for Lactobacillus) to achieve bacterial concentration of approximately 5×10^5 CFU/ml. Bacteria were then seeded in 96-well plates containing serial dilutions of the compounds and incubated as mentioned previously for 48 hours.
# [15] = system: Lactobacillus gasseri EX336960VC03 HIM-400; test: MIC against human normal gut microbiota; type: cell-based; details: Lactobacillus gasseri; MRS broth, 5% CO2, 48 hours; read-out: MIC
# Method: as §2
# [16] = system: Bifidobacterium breve—JCP7499 HIM 1120; test: MIC against human normal gut microbiota; type: cell-based; details: Bifidobacterium; BHIS broth, anaerobic, 48 hours; read-out: MIC
# Method: as §2
# [17] = system: Lactobacillus casei ATCC 334; test: MIC against human normal gut microbiota; type: cell-based; details: Lacticaseibacillus casei, ATCC334; MRS broth, 5% CO2, 48 hours; read-out: MIC
# Method: as §2
# [18] = system: Bacteroides fragilis—CL07T00C01 HIM-709; test: MIC against human normal gut microbiota; type: cell-based; details: Bacteroides; BHIS broth, anaerobic, 48 hours; read-out: MIC
# Method: as §2
# [19] = system: Bacteroides dorei—CL02T12C06 HM-719; test: MIC against human normal gut microbiota; type: cell-based; details: Bacteroides; BHIS broth, anaerobic, 48 hours; read-out: MIC
# Method: as §2
# [20] = system: Mutant-15 of Enterococcus fecalis NR 31975; test: microbe, parasite or virus in culture; type: cell-based; details: Enterococcus
# [21] = system: Enterococcus faecium Patient #2-1-NR-31909; test: MIC, broth microdilution in TSB; type: cell-based; details: Enterococcus faecium, TSB
# Method in brief: (§3)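 CLSI broth microdilution: overnight agar-grown enterococci adjusted to 0.5 McFarland, diluted in TSB to about 5×10^5 CFU/mL, then exposed to serially diluted compounds. Incubated aerobically at 37 °C for 18-20 h. MIC is the lowest concentration giving no visible growth.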
# [22] = system: Enterococcus faecium E417-HM-965; test: MIC, broth microdilution in TSB; type: cell-based; details: Enterococcus faecium, E417HM965, TSB
# Method in brief: as §3
# [23] = system: Mutant-8 of Enterococcus fecalis NR 31975; test: microbe, parasite or virus in culture; type: cell-based; details: Enterococcus
# [24] = system: vancomycin-resistant E. faecium; test: Mouse model of GI colonization by VRE; type: in vivo, C57BL/6 mice; details: 10 mg/kg by oral gavage for 8 days; feces as early as 3rd day
# From the text: Feasibility in vivo study: AZM reduces VRE load in the intestines and faeces. The promising feature, and the specific and potent antimicrobial activity of CAIs, prompted us to evaluate the in vivo efficacy of AZM in our established mouse model of GI colonization by enterococci with features that mimic the antibiotic-induced enterococcal expansion observed in humans (Mohammad, H. et al., Int J Antimicrob Agents 2018, 51, 897-904; Abdelkhalek, A, et al., PLoS One 2018, 13, e0199710). We tested AZM (two clinical doses 10 and 20 mg/kg) in female 12-week-old C57BL/6 mice (n=5 mice per group) that were sensitized with ampicillin ([…] in drinking water) for 7 days to reduce the microbiota present in the gastrointestinal tract and colonized with 10^8 CFU/mL of vancomycin-resistant E. faecium.
# We thought that the rapid absorption of AZM from the gastrointestinal tract would limit their exposure time to VRE present in the gastrointestinal tract.
# Mice were treated for 8 days with 10 mg/kg of drugs by oral gavage.
# [25] = Preliminary in vivo toxicity study; details: 200 mg/kg twice daily (400 mg/kg daily) for three days
# gut microbiota = system: gut microbiota; set-up: species or system C57BL/6 mice; details: mouse, in vivo, po, 10 mg/kg
# Method: CAIs had no major impact on microbiota composition. An extremely promising and innovative feature of CAIs is their narrow spectrum of activity and their ability to decolonize VRE without harming the microbiome. […] To characterize the impact of CAIs administration on the composition of the gut microbiota we performed the following assay6. Female 12-week-old C57BL/6 mice (n=5 mice per group) were exposed to CAIs by oral gavage for 10 days (10 mg/kg daily). Twenty-four hours after last dose, mice were euthanized and cecal and colon contents were harvested. The microbiome was characterized using 16S rDNA gene sequencing. The microbiotas from treated mice were compared to those from a group of control mice. […] However, at the phylum level, we observed decrease in Firmicutes in CAIs treatment groups and likely due to decrease of enterococci as enterococcus is a large genus of the phylum Firmicutes. The Verrucomicrobia and Bacteroidetes remain constant while other phyla increase to fill the remaining percentage from Firmicute loss. […] Indeed, the use of traditional antibiotics can increase the selective pressure and contribute to the selection of other multi-drug-resistant organisms (Kofteridis D. et al., Int J Infect Dis 2009, 13, e313-315).
# [26] = system: Enterococcus faecium Patient #2-1-NR-31909; test: MIC of CAIs in BHIB and TSB; type: cell-based; details: Enterococcus faecium, read-out: MIC
# Method: (§4) The minimum inhibitory concentrations (MICs) of CAIs were tested against clinical isolates of vancomycin sensitive and vancomycin resistant Enterococci strains as per the guidelines provided by the Clinical and Laboratory Standards Institute (CLSI). The selected strains of Enterococci were streaked on Tryptic Soy Agar (TSA) plates and let grow for 24 hours at 37° C. Afterwards, a bacterial solution equivalent to 0.5 McFarland standard was prepared and diluted in tryptone soy broth (TSB) or brain heart infusion broth (BHIB) to achieve a bacterial concentration of about 5×10^5 CFU/mL and seeded in 96-well well plates. Compounds and control drugs were added in the first row of the 96-well plates and serially diluted along the plates. Plates were then incubated aerobically at 37° C. for 18-20 hours. MICs reported in Table 5 are the minimum concentration of the compounds/control drugs that could inhibit completely the visual growth of the bacteria.
# [27] = system: Enterococcus fecalis Strain SF 24397 NR31970; test: MIC of CAIs in BHIB and TSB; type: cell-based; details: Enterococcus, read-out: MIC
# Method: as §4
# [28] = system: Enterococcus faecium E417-HM-965; test: MIC of CAIs in BHIB and TSB; type: cell-based; details: Enterococcus faecium, read-out: MIC
# Method: as §4
# [29] = system: Enterococcus faecalis—S613 HM-334; test: MIC of CAIs in BHIB and TSB; type: cell-based; details: Enterococcus, read-out: MIC
# Method: as §4, with “bacteria. The MIC values of CAIs against the tested VRE strains were higher in BHIB than in TSB. This may be due to binding of these drugs to proteins. […] They inhibited the VRE strains at MIC values ranging from 1 to 4 μg/mL.” for “bacteria.”
# [30] = system: Enterococcus faecalis-S613 HM-334; test: MIC in presence of 4% human serum albumin; type: cell-based; details: Enterococcus; TSB supplemented with 4% human serum albumin; read-out: MIC
# Method: as §4, with “against” for “against clinical isolates of vancomycin sensitive and”, “resistant Enterococcus faecalis—S613 HM 334 strain” for “resistant Enterococci strains”, “selected strain was” for “selected strains of Enterococci were”, “(TSA) plate” for “(TSA) plates”, “(TSB) supplemented with 4% human serum albumin (HAS)” for “(TSB) or brain heart infusion broth (BHIB)”, “in table (6)” for “in Table 5”
smiles,measurement,setting,value
"CCCC(=O)Nc1nnc(S(N)(=O)=O)s1 [CAI0013, N-(5-Sulfamoyl-1,3,4-thiadiazol-2-yl) butyramide]",MIC,[1],16 µg/mL
same,MIC,[2],16 µg/mL
same,MIC,[3],8 µg/mL
same,MIC,[4],16 µg/mL
same,MIC,[5],8 µg/mL
same,MIC,[6],16 µg/mL
same,MIC,[7],8 µg/mL
same,MIC,[8],> 64 µg/mL
same,MIC,[9],8 µg/mL
same,MIC,[10],8 µg/mL
same,MIC,[11],8 µg/mL
same,MIC,[12],8 µg/mL
same,MIC,[13],> 64 µg/mL
same,MIC,[14],> 64 µg/mL
same,MIC,[15],> 64 µg/mL
same,MIC,[16],> 64 µg/mL
same,MIC,[17],> 64 µg/mL
same,MIC,[18],> 64 µg/mL
same,MIC,[19],> 64 µg/mL
same,MIC,[20],16 µg/mL
same,MIC,"[21]; Table 1, read-out: MIC",0.5 µg/mL
same,MIC,"[21]; Table 7, read-out: MIC in TSB",0.5 µg/mL
same,MIC,"[22]; Table 1, read-out: MIC",0.5 µg/mL
same,MIC,"[22]; Table 7, read-out: MIC in TSB",0.5 µg/mL
same,MIC,[23],16 µg/mL
"NS(=O)(=O)c1nnc(NCc2ccccc2C(F)(F)F)s1 [analog 8, 5-((2-(trifluoromethyl)benzyl)amino)-1,3,4-thiadiazole-2-sulfonamide]","reduction of VRE in the feces, cecum and ileum",[24],superior to AZM and linezolid
same,signs of distress or toxicity,[25],None of the mice exhibited any signs of distress or toxicity
CCN[C@H]1C[C@H](C)S(=O)(=O)c2sc(S(N)(=O)=O)cc21 [Dorzolamide],taxonomic structure and composition of microbiota,gut microbiota,no major shift or change
same,MIC,[26]; BHIB,> 128 µg/mL
same,MIC,"[26]; TSB, Table 5",8 µg/mL
same,MIC,[27]; BHIB,> 128 µg/mL
same,MIC,"[27]; TSB, Table 5",8 µg/mL
same,MIC,"[28]; E417HM965, BHIB",128 µg/mL
same,MIC,"[28]; E417HM965, TSB, Table 5",16 µg/mL
same,MIC,[29]; BHIIB,> 128 µg/mL
same,MIC,"[29]; TSB, Table 5",8 µg/mL
same,MIC,[30],> 256 µg/mL
